Measured values as given in patent US5834487A, “Inhibition of 26S and 20S proteasome by indanones” (CV Therapeutics, priority 1996, dated 1998).
In brackets after ≈: the same amount, converted by molar mass.

Biological target: T1, 20S catalytic subunit of the proteasome (multicatalytic proteinase complex) (Bos taurus, UniProt Q32KL2)
T1 construct: was purified to homogeneity from bovine brain according to published methods; from tissue; host or cells: bovine brain
Assay: 20S proteasome chymotryptic activity, fluorogenic peptide cleavage
Format: biochemical, bovine
Conditions: 50 μM succinyl-leu-leu-val-tyr-7-amino-4-methyl coumarin, 15 minutes at 37° C, pH7.5
Procedure: Compounds of this invention prepared according to the method of Example 1 were tested as follows. The 20S catalytic subunit of the proteasome (also known as the multicatalytic proteinase complex) was purified to homogeneity from bovine brain according to published methods (Wilk S. and Orlowski, M, 40 842 J. Neurochem (1983)). The chymotryptic activity of the complex is measured by the increase in fluorescence following cleavage of the substrate peptide succinyl-leucine-leucine-valine-tyrosine-7-amino-4-methyl coumarin. The standard in vitro assay consists of 2 μg 20S proteasome, 0.1-100 μg/ml proteasome inhibitor in 200 μl 50 mM HEPES, containing 0.1% sodium dodecyl sulphate, pH7.5. The proteolytic reaction is initiated by the addition of 50 μM fluorogenic peptide substrate and allowed to progress for 15 minutes at 37° C. The reaction is terminated by the addition of 100 μl of 100 mM acetate buffer, pH4.0. The rate of proteolysis is directly proportional to the amount of liberated aminomethylcoumarin which is measured by fluorescent spectroscopy (EX 370 nm, EM 430 nm).

SMILES	IC50
COc1ccc2c(c1)C(CC(=O)NC(CC(C)C)C(=O)NC(CC1CCCCC1)C(N)=O)CC2=O (mixture of isomers) [Compound 132]	> 10 µg/mL
COc1ccc2c(c1)C(CC(=O)NC1CCc3ccccc31)CC2=O (centres unmarked) [Compound 83]	> 10 µg/mL
COc1ccc2c(c1)C(CC(=O)N(c1ccc(O)cc1)c1ccc3ccccc3c1)CC2=O (centres unmarked) [Compound 144]	> 10 µg/mL
COc1ccc(CNC(=O)CC2CC(=O)c3ccc(OC)cc32)cc1 (centres unmarked) [Compound 85]	> 10 µg/mL
COc1ccc2c(c1)C(CC(=O)N1CCC(C)CC1)CC2=O (centres unmarked) [Compound 108]	> 10 µg/mL
COc1ccc2c(c1)C(CC(=O)NC(C(N)=O)c1ccccc1)CC2=O (mixture of isomers) [Compound 36]	> 10 µg/mL
COc1ccc2c(c1)C(CC(=O)NC(Cc1c[nH]c3ccccc13)C(=O)NC(CC(C)C)C(N)=O)CC2=O (mixture of isomers) [Compound 103]	> 10 µg/mL
COc1ccc2c(c1)C(CC(=O)NC(C)C(=O)NC(CC(C)C)C(N)=O)CC2=O (mixture of isomers) [Compound 59]	> 10 µg/mL
COc1ccc2c(c1)C(CC(=O)N1Cc3ccccc3CC1C(=O)NC(CC(C)C)C(N)=O)CC2=O (mixture of isomers) [Compound 60]	> 10 µg/mL
COc1ccc2c(c1)C(CC(=O)NC(CCCNC(=N)N)C(=O)NC(CC(C)C)C(N)=O)CC2=O (mixture of isomers) [Compound 93]	> 10 µg/mL
COc1ccc2c(c1)C(CC(=O)NC(Cc1ccccc1)C(N)=O)CC2=O (mixture of isomers) [Compound 24]	> 10 µg/mL
CCCCC(NC(=O)CC1CC(=O)c2ccc(OC)cc21)C(N)=O (mixture of isomers) [Compound 8]	> 10 µg/mL
COc1ccc2c(c1)C(CC(=O)NC(CC(C)C)C(=O)NCc1ccccc1)CC2=O (mixture of isomers) [Compound 198]	> 10 µg/mL
COc1ccc2c(c1)C(CC(=O)N(C)CCO)CC2=O (centres unmarked) [Compound 115]	> 10 µg/mL
COc1ccc2c(c1)C(CC(=O)N(CCO)Cc1ccccc1)CC2=O (racemic) [Compound 166]	> 50 µg/mL
COc1ccc2c(c1)C(CC(=O)N1Cc3ccccc3CC1C(=O)NC(CC(C)C)C(N)=O)CC2=O (mixture of isomers) [Compound 26]	> 10 µg/mL

SMILES	IC50
COCCNC(=O)CC1CC(=O)c2ccc(OC)cc21 (centres unmarked) [Compound 117]	> 10 µg/mL
COc1ccc(CN(C(=O)CC2CC(=O)c3ccc(OC)cc32)c2ccccn2)cc1 (centres unmarked) [Compound 149]	> 10 µg/mL
COc1ccc2c(c1)C(CC(=O)NC(CC1CCCCC1)C(=O)NC(CC1CCCCC1)C(N)=O)CC2=O (mixture of isomers) [Compound 35]	> 10 µg/mL
COc1ccc2c(c1)C(CC(=O)N1CCc3ccccc31)CC2=O (racemic) [Compound 160]	> 10 µg/mL
COc1ccc2c(c1)C(CC(=O)NC(CC(C)C)C(=O)NC(CC(C)C)C(=O)N(Cc1ccccc1)Cc1ccccc1)CC2=O (mixture of isomers) [Compound 177]	1 µg/mL
COc1ccc2c(c1)C(CC(=O)NCCN1CCCC1)CC2=O (centres unmarked) [Compound 112]	> 10 µg/mL
COc1ccc2c(c1)C(CC(=O)N1CCCCC1)CC2=O (centres unmarked) [Compound 67]	> 10 µg/mL
COc1ccc2c(c1)C(CC(=O)NC(CCCCN)C(=O)NC(CC(C)C)C(N)=O)CC2=O (mixture of isomers) [Compound 100]	> 10 µg/mL
COc1ccc(NC(=O)CC2CC(=O)c3ccc(OC)cc32)cc1 (centres unmarked) [Compound 121]	> 10 µg/mL
COc1ccc2c(c1)C(CC(=O)NC(CC(C)C)C(=O)NC(C(N)=O)c1ccccc1)CC2=O (mixture of isomers) [Compound 140]	> 10 µg/mL
COc1ccc2c(c1)C(CC(=O)N1CCCC1C(N)=O)CC2=O (mixture of isomers) [Compound 55]	> 10 µg/mL
COCCCNC(=O)CC1CC(=O)c2ccc(OC)cc21 (centres unmarked) [Compound 71]	> 10 µg/mL
COc1ccc2c(c1)C(CC(=O)NC(CC(C)C)C(=O)NC(Cc1ccccc1)C(N)=O)CC2=O (mixture of isomers) [Compound 56]	> 10 µg/mL
COc1ccc2c(c1)C(CC(=O)NC(CC(C)C)C(=O)NC(CC(C)C)C(=O)N(C)Cc1ccccc1)CC2=O (mixture of isomers) [Compound 180]	> 10 µg/mL
COc1ccc2c(c1)C(CC(=O)N1Cc3ccccc3CC1C(N)=O)CC2=O (mixture of isomers) [Compound 25]	> 10 µg/mL

The remaining lines, values ahead:

IC50	SMILES
> 10 µg/mL	COc1ccc2c(c1)C(CC(=O)NC(CC(C)C)C(=O)NC(CC(C)C)C(=O)NCC(N)=O)CC2=O (mixture of isomers) [Compound 17]
0.1 µg/mL	COc1ccc2c(c1)C(CC(=O)NC(CC(C)C)C(=O)NC(CC(C)C)C(=O)NCC(N)=O)CC2=O (mixture of isomers) [Compound 21]
> 10 µg/mL	COc1ccc2c(c1)C(CC(=O)NC(CC(N)=O)C(=O)NC(CC(C)C)C(N)=O)CC2=O (mixture of isomers) [Compound 96]
> 10 µg/mL	COc1ccc2c(c1)C(CC(=O)NCC(=O)NC(CC(C)C)C(=O)NCC(N)=O)CC2=O (mixture of isomers) [Compound 42]
> 10 µg/mL	CCCC(NC(=O)CC1CC(=O)c2ccc(OC)cc21)C(=O)NC(CC(C)C)C(N)=O (mixture of isomers) [Compound 58]
> 10 µg/mL	CCCCC(NC(=O)CC1CC(=O)c2ccc(OC)cc21)C(=O)NC(CC(C)C)C(=O)NCC(N)=O (mixture of isomers) [Compound 43]
> 10 µg/mL	COc1ccc2c(c1)C(CC(=O)NC(CC(=O)O)C(=O)NC(CC(C)C)C(N)=O)CC2=O (mixture of isomers) [Compound 94]
> 10 µg/mL	CCCCC(NC(=O)CC1CC(=O)c2ccc(OC)cc21)C(=O)NC(CC(C)C)C(N)=O (mixture of isomers) [Compound 16]
0.5 µg/mL (≈ 0.995 µM)	COc1ccc2c(c1)C(CC(=O)N[C@@H](CC(C)C)C(=O)N[C@H](CC(C)C)C(=O)NCC(N)=O)CC2=O (single isomer, unassigned) [Compound 50]
> 10 µg/mL	CCC[C@@H](NC(=O)[C@H](CC(C)C)NC(=O)CC1CC(=O)c2ccc(OC)cc21)C(=O)NCC(N)=O (some centres unmarked) [Compound 87]
0.5 µg/mL (≈ 0.995 µM)	COc1ccc2c(c1)C(CC(=O)N[C@@H](CC(C)C)C(=O)N[C@H](CC(C)C)C(=O)NCC(N)=O)CC2=O (single isomer, unassigned) [Compound 51]
> 10 µg/mL	CCCCC(NC(=O)C(CC(C)C)NC(=O)CC1CC(=O)c2ccc(OC)cc21)C(N)=O (mixture of isomers) [Compound 134]
> 10 µg/mL	COc1ccc2c(c1)C(CC(=O)NC(CC(C)C)C(=O)NC(CC(C)C)C(=O)N1CCCCC1)CC2=O (mixture of isomers) [Compound 175]
> 10 µg/mL	COc1ccc2c(c1)C(CC(=O)NC(CC(C)C)C(=O)NC(CC(C)C)C(=O)NCC(N)=O)CC2=O (mixture of isomers) [Compound 19]
> 10 µg/mL	COc1ccc2c(c1)C(CC(=O)NC(C(=O)NC(CC(C)C)C(=O)NCC(N)=O)c1ccccc1)CC2=O (mixture of isomers) [Compound 48]
5 µg/mL	COc1ccc2c(c1)C(CC(=O)NC(CC(C)C)C(=O)NC(CC(C)C)C(=O)NCC(N)=O)CC2=O (mixture of isomers) [Compound 18]
> 10 µg/mL	COc1ccc2c(c1)C(CC(=O)NC(CC(C)C)C(=O)NC(CC(C)C)C(=O)NC(C)C(N)=O)CC2=O (mixture of isomers) [Compound 125]
10 µg/mL (≈ 19.1 µM)	COc1ccc2c(c1)C(CC(=O)N[C@@H](CC(C)C)C(=O)N[C@@H](C(=O)NCC(N)=O)c1ccccc1)CC2=O (some centres unmarked) [Compound 91]
> 10 µg/mL	CCCCC(NC(=O)CC1CC(=O)c2ccc(OC)cc21)C(=O)NC(CC(C)C)C(N)=O (mixture of isomers) [Compound 15]
> 10 µg/mL	COc1ccc2c(c1)C(CC(=O)NC(CC(C)C)C(=O)NC(CC(C)C)C(=O)NC(C)(C)C(N)=O)CC2=O (mixture of isomers) [Compound 170]
10 µg/mL	COc1ccc2c(c1)C(CC(=O)NC(CC(C)C)C(=O)NC(CC(C)C)C(=O)NCc1ccc([N+](=O)[O-])cc1)CC2=O (mixture of isomers) [Compound 195]
> 10 µg/mL	COc1ccc2c(c1)C(CC(=O)NC(CC(C)C)C(=O)NC(CC(C)C)C(N)=O)CC2=O (mixture of isomers) [Compound 5]
> 10 µg/mL	COc1ccc2c(c1)C(CC(=O)N[C@@H](CC(C)C)C(=O)N[C@@H](C(=O)NCC(N)=O)C(C)C)CC2=O (some centres unmarked) [Compound 90]
> 10 µg/mL	COc1ccc2c(c1)C(CC(=O)NC(C(=O)NC(CC(C)C)C(N)=O)C(C)C)CC2=O (mixture of isomers) [Compound 30]
> 10 µg/mL	CCCC[C@@H](NC(=O)[C@H](CC(C)C)NC(=O)CC1CC(=O)c2ccc(OC)cc21)C(=O)NCC(N)=O (some centres unmarked) [Compound 86]
